# Molecular target: T1, MMP-2 (Homo sapiens, UniProt P08253)
# T1 construct: made in house; host or cells: MMP-2-transfected p2AHT2 cells
# T1 sequence (P08253 110-660): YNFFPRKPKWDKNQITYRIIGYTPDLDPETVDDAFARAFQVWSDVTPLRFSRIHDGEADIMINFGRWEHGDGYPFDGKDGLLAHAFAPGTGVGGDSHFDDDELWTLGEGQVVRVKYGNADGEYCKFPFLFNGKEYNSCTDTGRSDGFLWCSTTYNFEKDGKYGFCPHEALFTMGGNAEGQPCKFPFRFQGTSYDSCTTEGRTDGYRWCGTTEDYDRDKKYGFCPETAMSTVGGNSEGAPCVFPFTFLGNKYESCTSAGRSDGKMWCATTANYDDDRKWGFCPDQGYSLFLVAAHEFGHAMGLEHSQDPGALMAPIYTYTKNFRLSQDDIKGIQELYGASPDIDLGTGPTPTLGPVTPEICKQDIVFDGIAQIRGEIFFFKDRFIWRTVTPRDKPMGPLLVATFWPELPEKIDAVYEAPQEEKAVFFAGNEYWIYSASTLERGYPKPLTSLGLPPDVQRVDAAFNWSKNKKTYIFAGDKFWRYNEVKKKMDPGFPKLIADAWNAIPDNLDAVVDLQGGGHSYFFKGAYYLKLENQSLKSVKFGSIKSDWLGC
# Experiment: In vitro MMP inhibition, IC50 determination (fluorogenic substrate I)
# Format: biochemical
# Conditions: value in parentheses; read-out: MMP-2 (IC-50)
row,SMILES,IC50 [nM]
1,CCCCOc1ccc(N2CCN(S(=O)(=O)C3(C(=O)NO)CCN(C(=O)CCC)CC3)CC2)cc1 [Example 290],59.5

# Same assay, conditions: value in parenthesis; read-out: MMP-2 (IC-50)
row,SMILES,IC50 [nM]
1,CCOCCCc1ccc(N2CCN(S(=O)(=O)C3(C(=O)NO)CCN(CCOC)CC3)CC2)cc1 [Example 179],1.02
2,COCCCc1ccc(N2CCN(S(=O)(=O)C3(C(=O)NO)CCN(CCOC)CC3)CC2)cc1 [Example 180],2.14
3,COCCN1CCC(C(=O)NO)(S(=O)(=O)N2CCN(c3ccc(CC4CCCCC4)cc3)CC2)CC1 [Example 181],10.2
4,COCCN1CCC(C(=O)NO)(S(=O)(=O)N2CCN(c3ccc(CCC4CCCC4)cc3)CC2)CC1 [Example 182],0.12
5,COCCN1CCC(C(=O)NO)(S(=O)(=O)N2CCN(c3ccc(CC4CCC4)cc3)CC2)CC1 [Example 183],2.31
6,CCOc1ccc(N2CCN(S(=O)(=O)C3(C(=O)NO)CCN(CCOC)CC3)CC2)cc1F [Example 184],0.65
7,CCCOc1ccc(N2CCN(S(=O)(=O)C3(C(=O)NO)CCN(CCOC)CC3)CC2)cc1F [Example 185],0.59
8,COCCN1CCC(C(=O)NO)(S(=O)(=O)N2CCN(c3ccc(C#N)cc3)CC2)CC1 [Example 186],3.14
9,CCc1cnc(N2CCN(S(=O)(=O)C3(C(=O)NO)CCN(CCOC)CC3)CC2)nc1 [Example 187],78
10,CCC(CC)Cc1ccc(N2CCN(S(=O)(=O)C3(C(=O)NO)CCN(CCOC)CC3)CC2)cc1 [Example 188],12.4

# Source: patent US20050209278A1, “Piperidinyl- and piperazinyl-sulfonylmethyl hydroxamic acids and their use as protease inhibitors” (priority 2002, published 2005)
